Tests used:
[1] = test system: Canis familiaris; assay: The ability of compound to prevent the emesis induced by apomorphine (0.1 mg/kg, iv) in dogs at the specified dosage of 3.2 mg/kg (sesame oil); Range is 8-9; assay type: functional, Canis lupus familiaris
[2] = test system: Rattus norvegicus; assay: Tested for neuroleptic activity by measuring antagonism of d-amphetamine sulfate at intraperitoneal dosage of 5 mg/kg, after 5 hours in rat; Range is 0.1-0.32; assay type: functional; settings: ip
[3] = test system: Rattus norvegicus; assay: Tested for neuroleptic activity by measuring antagonism of d-amphetamine sulfate at intraperitoneal dosage of 5 mg/kg, after 24 hours in rat; Range is 0.32-1.0; assay type: functional; settings: ip
[4] = test system: Rattus norvegicus; assay: Tested for neuroleptic activity by measuring antagonism of d-amphetamine sulfate at intraperitoneal dosage of 5 mg/kg, after 1 hour in rat; Range is 0.1-0.32; assay type: functional; settings: ip
[5] = test system: Canis familiaris; assay: The ability of compound to prevent the emesis induced by apomorphine (0.1 mg/kg, iv) in dogs at the specified dosage of 2.0 mg/kg (1 N saline); assay type: functional, Canis lupus familiaris
[6] = species on record: Rattus norvegicus; assay: animal or person; settings: ip, 5 h
Description: tested for neuroleptic activity by measuring antagonism of d-amphetamine sulfate at intraperitoneal dosage of 5 mg/kg, after 5 hours in rat

[7] = species on record: Rattus norvegicus; assay: animal or person; settings: ip, 1 h
Description: tested for neuroleptic activity by measuring antagonism of d-amphetamine sulfate at intraperitoneal dosage of 5 mg/kg, after 1 hour in rat

[8] = species on record: Rattus norvegicus; assay: animal or person; settings: ip, 24 h
Description: tested for neuroleptic activity by measuring antagonism of d-amphetamine sulfate at intraperitoneal dosage of 5 mg/kg, after 24 hours in rat

[9] = test system: Rattus norvegicus; assay: Tested for neuroleptic activity by measuring antagonism of d-amphetamine sulfate at intraperitoneal dosage of 5 mg/kg, after 1 hour in rat; Range is 0.32-1.0; assay type: functional; settings: ip
[10] = test system: Rattus norvegicus; assay: Tested for neuroleptic activity by measuring antagonism of d-amphetamine sulfate at intraperitoneal dosage of 5 mg/kg, after 5 hours in rat; Range is 0.32-1.0; assay type: functional; settings: ip
[11] = test system: Rattus norvegicus; assay: Tested for neuroleptic activity by measuring antagonism of d-amphetamine sulfate at intraperitoneal dosage of 5 mg/kg, after 24 hours in rat; Range is 3.2-10; assay type: functional; settings: ip
[12] = test system: Rattus norvegicus; assay: Tested for neuroleptic activity by measuring antagonism of d-amphetamine sulfate at intraperitoneal dosage of 5 mg/kg, after 5 hours in rat; Range is 1.0-3.2; assay type: functional; settings: ip
[13] = test system: Rattus norvegicus; assay: Tested for neuroleptic activity by measuring antagonism of d-amphetamine sulfate at intraperitoneal dosage of 5 mg/kg, after 24 hours in rat; Range is 10-32; assay type: functional; settings: ip
[14] = test system: Rattus norvegicus; assay: Tested for neuroleptic activity by measuring antagonism of d-amphetamine sulfate at intraperitoneal dosage of 5 mg/kg, after 24 hours in rat; Range is 1.0-32; assay type: functional; settings: ip
[15] = species on record: Rattus norvegicus; assay: Inhibition of amphetamine induced stereotypy in rats; pretreated 1 hr before amphetamine.; assay type: functional
[16] = test system: Rattus norvegicus; assay: Tested for neuroleptic activity by measuring antagonism of d-amphetamine sulfate at intraperitoneal dosage of 5 mg/kg, after 5 hours in rat; assay type: functional; settings: ip
[17] = test system: Canis familiaris; assay: The ability of compound to prevent the emesis induced by apomorphine (0.1 mg/kg, iv) in dogs at the specified dosage of 2.0 mg/kg (1 N saline); Range is 1-2; assay type: functional, Canis lupus familiaris
[18] = test system: Rattus norvegicus; assay: Tested for neuroleptic activity by measuring antagonism of d-amphetamine sulfate at intraperitoneal dosage of 5 mg/kg, after 1 hour in rat; Range is 1.0-3.2; assay type: functional; settings: ip
[19] = test system: Rattus norvegicus; assay: Tested for neuroleptic activity by measuring antagonism of d-amphetamine sulfate at intraperitoneal dosage of 5 mg/kg, after 24 hours in rat; Range is 1.0-3.2; assay type: functional; settings: ip

Structure (SMILES): CCCCC(=O)OC(CCCN1CCc2c(c3cc(F)ccc3n2-c2ccc(F)cc2)C1)c1ccc(F)cc1.Cl (centres undefined)
- Protection [1]: 8 days

Structure (SMILES): OC(CCCN1CCc2c(c3cc(F)ccc3n2-c2ccc(F)cc2)C1)c1ccc(F)cc1 (centres undefined) [FLUTROLINE]
- ED50 [2]: 0.1 mg/kg
- ED50 [3]: 0.32 mg/kg
- ED50 [4]: 0.1 mg/kg

Structure (SMILES): CCCCCCCCCC(=O)OC(CCCN1CCc2c(c3cc(F)ccc3n2-c2ccc(F)cc2)C1)c1ccc(F)cc1.Cl (centres undefined)
- Protection [5]: 0 days

Structure (SMILES): Cl.O=C(CCN1CCc2c(c3cc(F)ccc3n2-c2ccc(F)cc2)C1)c1ccc(F)cc1
- ED50 [6]: > 32 mg/kg
- ED50 [7]: > 32 mg/kg
- ED50 [8]: > 32 mg/kg

Structure (SMILES): Cl.Fc1ccc(CCCCN2CCc3c(c4cc(F)ccc4n3-c3ccc(F)cc3)C2)cc1
- ED50 [9]: 0.32 mg/kg
- ED50 [10]: 0.32 mg/kg
- ED50 [11]: 3.2 mg/kg

Structure (SMILES): Cl.OC(CCCN1CCc2c(c3cc(F)ccc3n2-c2ccc(F)cc2)C1)c1cccc(F)c1 (centres undefined)
- ED50 [12]: 1 mg/kg
- ED50 [9]: 0.32 mg/kg
- ED50 [13]: 10 mg/kg

Structure (SMILES): OC(CCCN1CCc2c(c3cc(F)ccc3n2-c2ccc(Cl)cc2)C1)c1ccc(F)cc1 (centres undefined)
- ED50 [14]: 1 mg/kg
- ED50 [15]: > 32 mg/kg
- ED50 [16]: > 32 mg/kg

Structure (SMILES): CCCCCCC(=O)OC(CCCN1CCc2c(c3cc(F)ccc3n2-c2ccc(F)cc2)C1)c1ccc(F)cc1.Cl (centres undefined)
- Protection [17]: 1 days

Structure (SMILES): Cl.OC(CCCN1CCc2c(c3cc(F)ccc3n2-c2ccccc2)C1)c1ccc(F)cc1 (centres undefined)
- ED50 [12]: 1 mg/kg
- ED50 [18]: 1 mg/kg
- ED50 [11]: 3.2 mg/kg

Structure (SMILES): Cl.O=C(CCCN1CCc2c(c3cc(F)ccc3n2-c2ccc(F)cc2)C1)c1ccc(F)cc1
- ED50 [12]: 1 mg/kg
- ED50 [18]: 1 mg/kg
- ED50 [19]: 1 mg/kg

— ChEMBL document CHEMBL1121451, “Neuroleptic activity in 5-aryltetrahydro-gamma-carbolines” (J Med Chem, 1980)
